Assays:
[1] = system: E. coli O157:H7 cells; test: Impedance spectroscopy of magainin-functionalized interdigitated microelectrode array, sensitivity measurements; format: binding; conditions: E. coli O157:H7 10^7 CFU/mL; response at 10 Hz
Method: FIG. 2 schematically outlines the sensing platform. AMPs are first immobilized on microfabricated interdigitated gold electrodes, anode 10 and cathode 12 (FIG. 2A). Magainin I was acquired with an additional cysteine residue at the C-terminus (FIG. 2B), allowing for facile and site specific covalent attachment to the gold electrodes. Next, heat-killed bacterial cells were injected and incubated with the AMP-modified electrodes. If the bacteria are recognized by the AMPs, binding will occur (FIG. 2C), leading to dielectric property changes which can be monitored via a spectrum analyzer. The impedance was measured over a frequency range of 10 Hz to 100 kHz.
Sensitivity of microbial detection is a key determinant for utility of the biosensor. To this end, the sensitivity of the magainin-functionalized microelectrode array in detecting bacterial cells was determined using impedance spectroscopy. […] A “blank” device with no immobilized AMPs was also tested for comparison. […] As the frequency increases, the contribution to the impedance from the bacterial cells decreases, leaving only the dielectric relaxation of small dipoles including water molecules in the buffer solution to affect the measured impedance. FIG. 3B depicts the impedance change at the fixed frequency of 10 Hz. […]

[2] = system: Listeria monocytogenes; test: Selectivity of AMP-functionalized biosensor (impedance at 10 Hz, fluorescent microscopy), Gram-negative pathogens relative to Listeria; format: binding; conditions: all 10^7 CFU/mL
Method: (§1) As a next step, the selectivity of the AMP-functionalized biosensors toward various bacterial species was determined. Specifically, the binding behavior of AMPs was probed toward: 1) Gram-negative pathogenic E. coli O157:H7, 2) the non-pathogenic E. coli strain ATCC 35218, 3) Gram-negative pathogenic Salmonella typhimurium, and Listeria monocytogenes, a Gram-positive pathogen. Collectively, these studies elucidate the matrix of selectivity as it depends on Gram-negative vs. Gram-positive species, and pathogenic vs. non-pathogenic strains. […]
(§2) Stock solutions of propidium iodide (PI), nucleic acid stain (Molecular probes, Eugene, Oreg.) were made from solid form by dissolving PI (MW=668.4) in deionized water at 1 mg/mL (1.5 mM) and stored at 4° C., protected from light. […] The binding pattern of the different bacterial cells was imaged using a Zeiss axiovert inverted microscope and recorded with a Zeiss axiocam digital camera. Surface density of the bound bacterial cells was analyzed and plotted using imageJ software from NIH.
(§3) Dielectric property changes due to AMP-bacteria interactions were probed using a Fast-Fourier Transform (FFT) spectrum analyzer. […] For real-time measurements, the impedance vs. time data was recorded while buffer solutions or different dilutions of bacterial solutions flowed through the microfluidic channel. […]

[3] = system: Salmonella typhimurium; test: Selectivity of AMP-functionalized biosensor, pathogenic E. coli relative to Salmonella; format: binding; conditions: 10^7 CFU/mL
Method: as §1, §2, §3

[4] = system: pathogenic E. coli cells; test: Real-time detection in microfluidic flow cell, impedance response; format: binding; conditions: flow rate 5 μL/min
Method: To simulate the use of the AMP microelectrodes in everyday applications, such as direct water sampling, the biosensor response tested to perform in real time, as shown in FIG. 8. First, a microfluidic cell was bonded to the interdigitated biosensor chip (FIG. 8A), such that the electrodes were perpendicular to the direction of the sample flow (FIG. 8B). Next, fluid was injected using a syringe pump connected to the inlet port, and allowed to flow through to the outlet port, at a flow rate of 100 μL/min. The flow cell was first flushed with buffer to establish a baseline. Various dilutions (10^4-10^7 CFU/mL) of pathogenic E. coli cells in PBS were then injected to the channel at a reduced flow rate of 5 μL/min for 30 min. […] Simultaneously, the impedance response was continuously monitored during the sample flow-through process (FIG. 8D). […] This difference between detection in flowing and static water sample has also been reported in fluorescent based assays. This difference is attributed to the opposing effects of shear and mixing on the binding kinetics.
Interdigitated capacitive electrodes were microfabricated on 4″ p-type silicon wafers (boron-doped, <100>, 10-16 Ω-cm, 550 μm thick). A 1 μm thick silicon dioxide layer was deposited on the wafer by plasma enhanced chemical vapor deposition (PECVD) to form electrical insulation between the Si substrate and the capacitive electrodes. S1813 photoresist was patterned using photolithography, followed by electron-beam evaporation of 10 nm Ti and 300 nm Au under high vacuum conditions. The titanium layer helps to provide adhesion of the Au to the SiO2. The IMA was then finally developed by lift-off patterning of the metallic layer in acetone with ultrasonic activation. […]
as §3

[5] = system: E. coli O157:H7 bacterial cell; test: Single bacterium detection on graphene sensors functionalized with antimicrobial peptide, simultaneous resistance and optical data; format: binding; conditions: compared to non-functionalized graphene
Description: Simultaneous collection of electrical and fluorescence data from the graphene sensors in the presence of fluorescently labeled E. coli cells clearly indicate that the change in the resistance recorded corresponds to the binding and unbinding of the bacterial cell from the graphene surface. The resistance of the graphene sensor remains at the baseline value until the bacterial cell diffuses to the sensor surface and drops down by approximately 0.6 percentage of the original, once the bacterial cell binds to the graphene surface.
The resistance of the sensor decreases from the baseline value up on the binding of the negatively charged bacterial cell and returns back to the initial value up on unbinding, indicating a p-type behavior of the graphene transducer. […] In order to determine the effect of the immobilized AMPs on the binding/unbinding properties simultaneous resistance and optical data were recorded on graphene sensors functionalized with antimicrobial peptides. […]
Electrical measurements for the detection of single bacteria binding measurements were performed with a lock-in detection system using Stanford Research Systems 810 DSP lock-in amplifier. […] The resistance of the graphene sensor was monitored continuously in the presence of analyte sample of various dilutions of bacterial cells. […]

[6] = system: Helicobacter pylori; conditions: cited from earlier work
[7] = system: Staphylococcus aureus; conditions: cited from earlier work
[8] = system: Escherichia coli; conditions: cited from earlier work
[9] = system: methicillin resistant strains of S. aureus; conditions: cited from earlier work

Q: With GIGKFLHSAGKFGKAFVGEIMKS [magainin I] as the substance, how does the “response of the biosensor towards target cells with increasing concentration of immobilized magainin” value [1] read?
A: increase monotonically

Q: What about the “impedance difference, pathogenic Gram-negative E. coli and Salmonella relative to Gram-positive Listeria” value [2] of the same substance?
A: two

Q: And the “response for pathogenic E. coli relative to Salmonella” value [3]?
A: slightly larger response

Q: And the “time to measurable response relative to the control sample, all samples” value ([4]; 10^4-10^7 CFU/mL in PBS)?
A: ≤ 5 min

Q: What about the “time to saturation of responses” value ([4]; 10^4-10^7 CFU/mL in PBS) of the same substance?
A: ca. 20 min

Q: And the “time to response, highest concentration sample” value [4]?
A: ≤ 30 s

Q: For Odorranin-HP [O-HP], which “effect of immobilized peptide on unbinding of bacterial cells” value [5] is on record?
A: slows the unbinding kinetics

Q: What about the MIC [6] of the same substance?
A: 20 µg/mL

Q: And the MIC [7]?
A: 5 µg/mL

Q: What about the MIC [8] of the same substance?
A: 30 µg/mL

Q: What about the antimicrobial activity [9] of the same substance?
A: exert antimicrobial activity

Reference: patent publication US9029168B2, “Use and making of biosensors utilizing antimicrobial peptides for highly sensitive biological monitoring” (priority 2010, dated 2015)
